The SangsterLogP compilation

assay: method code SF-AS, from PMID: 4480356

| SMILES | logP |
| --- | --- |
| Cc1cnc(C(c2ccc(O)cc2)c2ccc(O)cc2)s1 | 3.34 |
| Oc1ccc(C(c2ccc(O)cc2)c2cccnc2)cc1 | 3.13 |
| Oc1ccc(Cc2ccc(O)cc2)cc1 | 2.91 |
| Cc1cnc(Cc2ccc(O)cc2)s1 | 2.62 |
| Oc1ccc(C(c2ccc(O)cc2)c2nccs2)cc1 | 2.96 |

Results, then the compound that gave them:

| logP | SMILES |
| --- | --- |
| 3.27 | OCc1ccccc1C(c1ccc(O)cc1)c1ccc(O)cc1 |
| 2.61 | O=C(O)c1ccccc1C(c1ccc(O)cc1)c1ccc(O)cc1 |
| 3.24 | Oc1ccc(C(c2ccncc2)c2ccc(O)cc2)cc1 |
| 3.16 | Nc1ccccc1C(c1ccc(O)cc1)c1ccc(O)cc1 |
| 2.84 | Oc1ccc(C(c2ccc(O)cc2)c2ccccn2)cc1 |
